Laboratory results reported in patent US9624243B2, “Heterocyclic compounds and methods of their use” (Novartis AG, priority 2012, dated 2017).

biological target: AT2 receptor (Homo sapiens (Human), UniProt P50052); assay: AT2 Receptor Binding; settings: HEK293 AT2 receptor transient cell membranes, [125I]-CGP42112A
Protocol: 1. Trypsin-EDTA (for Preparation of 100 mL)
• Dissolve trypsin in 2% EDTA and PBS completely; sterilize the solution by passing through a […] membrane filter; store at 4° C.
2. DMEM Medium (for Preparation of 1 L) • The powder was dissolved into 950 mL of distilled water with gentle stirring until the solution becomes clear. • Add. NaHCO3 1.176 g for DMEM medium. • Adjust pH of medium to 0.2˜0.3 below final working pH using 1 M NaOH or 1 M • HCl. Add slowly with stirring. • Dilute to 1 liter with ddH2O. • Sterilize the medium immediately by filtration. • Store at 4° C.
3. TE Buffer • 20 mM Tris-HCl, pH 7.4, • 5 mM EDTA
4. Binding Assay Buffer • 50 mM Hepes, pH 7.4 • 5 mM MgCl2 • 1 mM CaCl2 • 0.2% BSA
5. Wash Buffer • 50 mM Hepes, pH 7.4 Procedures for HEK293AT2 Receptor Transient Cell Transfection • Cells were plated into 150 mm dish at 50% density for transient transfection. Cells were ready for transfection after overnight incubation (the confluence reaches around 80%). • 75 μL Lipofectamine™2000 diluted in 6.25 mL OptiMEM I Reduced Serum Medium, was mixed gently, and incubated at room temperature for 5 minutes. 50 μg expression plasmid DNA diluted in 6.25 mL OptiMEM I Reduced Serum Medium without serum was mixed gently. • After the 5 minute incubation, the diluted DNA was combined with the diluted Lipofectamine™2000 (total volume is 12.5 mL). The mixture was mixed gently and incubated for 30 minutes at room temperature to allow the DNA-Lipofectamine™2000 complexes to form. • The 12.5 mL DNA-Lipofectamine™2000 complexes were added into the 150 mm dish and mixed gently by rocking the dish back and forth. • The cells were incubated at 37° C. with 5% CO2 for 48 hours. Cells were collected and stored frozen at −80° C. Procedures for HEK293AT2 Receptor Cell Membrane Preparation • Frozen HEK293AT2 receptor (transient transfected) cells were homogenized in ice cold TE buffer for 10s. • The homogenate was centrifuged at 25,000 g for 30 minutes. • The pellet was resuspended in ice cold tissue buffer. • Protein concentrations were determined using Bradford assay method with BSA as standard. • The membrane protein was frozen under −80° C. Compound Preparation
Solutions of all compounds were prepared bymicroplate liquid handling equipment such as Janus or Precision 2000. Compounds, dissolved in DMSO were stored in a Freezer. Compounds were prepared from 30 mM in 100% DMSO.
Step 1: Dose Plate Preparation (96 Well Plate)
• Add the 3 μL [30 mM] compound stock to column 1 on the plate. • Add 15 μL of 100% DMSO to column 1. • Add 10.81 μL of 100% DMSO to column 2-12. • Transfer 5 μL from column 1 into column 2 (half log dilution). • Transfer 5 μL from column 2 into column 3 (half log dilution). • Transfer 5 μL from column 3 into column 4 (half log dilution). • Transfer 5 μL from column 4 into column 5 (half log dilution). • Transfer 5 μL from column 5 into column 6 (half log dilution). • Transfer 5 μL from column 6 into column 7 (half log dilution). • Transfer 5 μL from column 7 into column 8 (half log dilution). • Transfer 5 μL from column 8 into column 9 (half log dilution). • Transfer 5 μL from column 9 into column 10 (half log dilution) • Transfer 5 μL from column 10 into column 11 (half log dilution) • Transfer 5 μL from column 11 into column 12 (half log dilution).
All the compounds were diluted using Precision 2000 microplate liquid handling equipment. The top concentration of compound was 5 mM with 100% DMSO.
Step 2: Working Plate Preparation (96 Well Plate)
• Compounds were diluted 50-fold with buffer. • 49 μL buffer was added to the well of 96 well plate. • 1 μL compound solution from dose plate was transferred to the corresponding well of working plate. • The top concentration of compound was 100 μM with 2% DMSO. Step 3: Assay Plate Preparation (96 Well Plate)
15 μL of compound solution was transferred from each well of working plate to the well of assay plate by Janus.

Chain of AT2 receptor (P50052 whole entry, species assumed): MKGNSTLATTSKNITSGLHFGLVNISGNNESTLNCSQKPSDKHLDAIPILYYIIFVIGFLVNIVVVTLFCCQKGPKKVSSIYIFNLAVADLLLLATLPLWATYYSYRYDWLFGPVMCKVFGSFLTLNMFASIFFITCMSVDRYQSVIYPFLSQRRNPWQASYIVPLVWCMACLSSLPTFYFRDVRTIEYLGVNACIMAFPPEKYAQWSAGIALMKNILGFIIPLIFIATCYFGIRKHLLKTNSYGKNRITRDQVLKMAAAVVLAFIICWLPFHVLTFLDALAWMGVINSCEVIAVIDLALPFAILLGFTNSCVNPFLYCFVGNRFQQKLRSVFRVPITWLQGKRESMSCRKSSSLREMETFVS

SMILES | IC50 [nM]
CN(CCCc1ccccc1)[C@H]1C[C@@H](C(=O)O)N(C(=O)C(c2ccccc2)C2CCCCC2)C1 (stereo partly drawn) [Compound 62, (2S,4S)-1-(2-cyclohexyl-2-phenylacetyl)-4-(methyl(3-phenylpropyl)amino)pyrrolidine-2-carboxylic acid] | 540
O=C(O)[C@@H]1C[C@H](N2CCC[C@H]3CN(Cc4ccccc4)C[C@H]32)CN1C(=O)C(c1ccccc1)c1ccccc1 [Compound 84] | 75.8
CN(CC#Cc1ccccc1)[C@H]1C[C@@H](C(=O)O)N(C(=O)C(c2ccccc2)c2ccccc2)C1 [Compound 116, (2S,4S)1-(2,2-diphenylacetyl)-4-(methyl(3-phenylprop-2-yn-1-yl)amino)pyrrolidine-2-carboxylic acid] | 650
O=C1NCC2(CCN([C@H]3C[C@@H](C(=O)O)N(C(=O)C(c4ccccc4)c4ccccc4)C3)CC2)C1c1ccccc1 (stereo partly drawn) [Compound 65, (2S,4S)-1-(2,2-diphenylacetyl)-4-(3-oxo-4-phenyl-2,8-diazaspiro[4,5]decan-8-yl)pyrrolidine-2-carboxylic acid] | 1600
O=C(O)[C@@H]1C[C@H](CS(=O)(=O)c2ccccc2)CN1C(=O)C(c1ccccc1)c1ccccc1 [Compound 119, (2S,4S)-4-((phenylsulfonyl)methyl)-1-(diphenylacetyl)-pyrrolidine-2-carboxylic acid] | 2650
O=C(O)[C@@H]1C[C@H](N2CCC[C@@H]3CN(Cc4ccccc4)C[C@@H]32)CN1C(=O)C(c1ccccc1)c1ccccc1 [Compound 85, (2S,4S)-4-((4aR,7aR)-6-benzoctahydro-1H-pyrrolo[3,4-b]-pyridin-1-yl)-1-(2,2-diphenylacetyl)pyrrolidine-2-carboxylic acid] | 103
O=C(O)[C@@H]1C[C@H](CS(=O)(=O)CCc2ccccc2)CN1C(=O)C(c1ccccc1)c1ccccc1 [Compound 58, (2S,S)-1-(2,2-diphenylacetyl)-4-((phenethylsulfonyl)methyl)pyrrolidine-2-carboxylic acid] | 3050
O=C(O)[C@@H]1C[C@H](N2CCCC2Cc2ccccc2)CN1C(=O)C(c1ccccc1)c1ccccc1 (single isomer, unassigned) [Compound 61-A, (3′S,5′S)-2-benzyl-V-(2,2-diphenylacetyl)-[1,3′-bipyrrolidine]-5′-carboxylic acid] | 83.3
CN(CCCc1ccccc1)[C@@H]1CN(C(=O)C(c2ccccc2)c2ccccc2)C[C@H]1C(=O)O (mixture of isomers) [Compound 67, (3R,4S)-1-(2,2-diphenylacetyl)-4-(methyl(3-phenylpropyl)amino)pyrrolidine-3-carboxylic acid and (3S,4R)-1-(2,2-diphenylacetyl)-4-(methyl(3-phenylpropyl)amino)pyrrolidine-3-carboxylic acid] | 3660
CN(CCCc1ccc(F)cc1)[C@H]1C[C@@H](C(=O)NS(=O)(=O)N(C)C)N(C(=O)C(c2ccccc2)c2ccccc2)C1 [Compound 114, (2S,4S)—N—(N,N-dimethylsulfamoyl)-1-(2,2-diphenylacetyl)-4-((3-(4-fluorophenyl)propyl)(methyl)amino)pyrrolidine-2-carboxylic acid] | 17.1
O=C(O)[C@@H]1C[C@H](OCCCc2ccc(F)cc2)CN1C(=O)C(c1ccccc1)c1ccccc1 [Compound 104, (2S,4S)-1-(2,2-diphenylacetyl)-4-(3-(4-fluorophenyl)-propoxy)pyrrolidine-2-carboxylic acid] | 1320
O=C(O)[C@@H]1C[C@H](OCC#Cc2ccccc2)CN1C(=O)C(c1ccccc1)c1ccccc1 [Compound 36, (2S,4S)-1-(2,2-diphenylacetyl)-4-((3-phenylprop-2-yn-1-yl)-oxy)pyrrolidine-2-carboxylic acid] | 1660
COc1ccc(C#CCN(C)[C@H]2C[C@@H](C(=O)O)N(C(=O)C(c3ccccc3)c3ccccc3)C2)cc1C [Compound 105, (2S,4S)-1-(2,2-diphenylacetyl)-4-((3-(4-methoxy-3-methylphenyl)prop-2-yn-1-yl)(methyl)amino)pyrrolidine-2-carboxylic acid] | 2490
CN(C)S(=O)(=O)NC(=O)[C@@H]1C[C@H](OCCCc2ccccc2)CN1C(=O)C(c1ccccc1)c1ccccc1 [Compound 50] | 67.3
O=C(O)[C@@H]1C[C@H](OC[C@@H]2C[C@H]2c2ccccc2)CN1C(=O)C(c1ccccc1)c1ccccc1 (mixture of isomers) [Compound 16, (2S,4S)-1-(2,2-diphenylacetyl)-4-(((1R,2R)-2-phenylcyclopropyl)methoxy)pyrrolidine-2-carboxylic acid and (2S,4S)-1-(2,2-diphenylacetyl)-4-(((1S,2S)-2-phenylcyclopropyl)methoxy)pyrrolidine-2-carboxylic acid] | 6650
O=C(O)[C@@H]1C[C@H](SCCCc2ccc(F)cc2)CN1C(=O)C(c1ccccc1)c1ccccc1 [Compound 133, (2S,4S)-1-(2,2-diphenylacetyl)-4((3-(4-fluorophenyl)propyl)thio)pyrrolidine-2-carboxylic acid] | 1740
O=C(O)[C@@H]1C[C@H](N2CCC[C@H](c3ccccc3)C2)CN1C(=O)C(c1ccccc1)c1ccccc1 [Compound 49, (2S,4S)-1-(2,2-diphenylacetyl)-4-((R)-3-phenylpiperidin-1-yl)pyrrolidine-2-carboxylic acid] | 58.8
CN(C)S(=O)(=O)NC(=O)[C@@H]1C[C@H](OCCCc2ccccc2)CN1C(=O)C(c1ccccc1)c1ccccc1 [Compound 112, (2S,4S)—N—(N,N-dimethylsulfamoyl)-1-(2,2-diphenylacetyl)-4-(3-phenylpropoxy)pyrrolidine-2-carboxamide] | 255
CN(CCOc1ccc(F)cc1)[C@H]1C[C@@H](C(=O)O)N(C(=O)C(c2ccccc2)c2ccccc2)C1 [Compound 126] | 20.5
O=C(O)[C@@H]1C[C@H](CCOCc2ccccc2)CN1C(=O)C(c1ccccc1)c1ccccc1 [Compound 55, (2S,4R)-4-(2-(benzyloxy)ethyl)-1-(2,2-diphenylacetyl)-pyrrolidine-2-carboxylic acid] | 386
O=C(O)C1Cc2c(OCc3ccccc3)cccc2N1C(=O)C(c1ccccc1)c1ccccc1 (stereo not shown) [Compound 15, 4-(benzyloxy)-1-(2,2-diphenylacetyl)indoline-2-carboxlic acid] | 54.5
O=C(O)[C@@H]1C[C@H](SCCc2ccccc2)CN1C(=O)C(c1ccccc1)c1ccccc1 [Compound 131, (2S,4S)-1-(2,2-diphenylacetyl)-4-(phenethylthio)pyrrolidine-2-carboxylic acid] | 652
CS(=O)(=O)NC(=O)[C@@H]1C[C@H](OCCCc2ccccc2)CN1C(=O)C(c1ccccc1)c1ccccc1 [Compound 135, (2S,4S)-1-(2,2-diphenylacetyl)-N-(methylsulfonyl)-4-(phenylpropoxy)pyrrolidine-2-carboxamide] | 240
O=C(O)[C@@H]1C[C@H](c2sccc2-c2ccccc2)CN1C(=O)C(c1ccccc1)c1ccccc1 [Compound 107, (2S,4S)-1-(2,2-diphenylacetyl)-4-(3-phenylthiophen-2-yl)-pyrrolidine-2-carboxylic acid] | 461
O=C(O)[C@@H]1C[C@H](CSCCc2ccccc2)CN1C(=O)C(c1ccccc1)c1ccccc1 [Compound 120, (2S,4S)-1-(2,2-diphenylacetyl)-4-((phenethylthio)methyl)pyrrolidine-2-carboxylic acid] | 1200
